Experiments:
[1] = molecular target: Glycogen synthase kinase-3 beta (Homo sapiens) (UniProt P49841); assay: Inhibition of GSK3beta (unknown origin) at 10 uM after 120 mins P33 radiolabeled kinase activity assay
[2] = molecular target: Mitogen-activated protein kinase 14 (Homo sapiens) (UniProt Q16539); assay: Inhibition of P38alpha (unknown origin) at 10 uM after 120 mins P33 radiolabeled kinase activity assay
[3] = molecular target: Serine/threonine-protein kinase PAK 3 (Homo sapiens) (UniProt O75914); assay: Inhibition of PAK3 (unknown origin) at 10 uM after 120 mins P33 radiolabeled kinase activity assay
Serine/threonine-protein kinase PAK 3 (Homo sapiens), sequence (O75914 whole entry, looked up): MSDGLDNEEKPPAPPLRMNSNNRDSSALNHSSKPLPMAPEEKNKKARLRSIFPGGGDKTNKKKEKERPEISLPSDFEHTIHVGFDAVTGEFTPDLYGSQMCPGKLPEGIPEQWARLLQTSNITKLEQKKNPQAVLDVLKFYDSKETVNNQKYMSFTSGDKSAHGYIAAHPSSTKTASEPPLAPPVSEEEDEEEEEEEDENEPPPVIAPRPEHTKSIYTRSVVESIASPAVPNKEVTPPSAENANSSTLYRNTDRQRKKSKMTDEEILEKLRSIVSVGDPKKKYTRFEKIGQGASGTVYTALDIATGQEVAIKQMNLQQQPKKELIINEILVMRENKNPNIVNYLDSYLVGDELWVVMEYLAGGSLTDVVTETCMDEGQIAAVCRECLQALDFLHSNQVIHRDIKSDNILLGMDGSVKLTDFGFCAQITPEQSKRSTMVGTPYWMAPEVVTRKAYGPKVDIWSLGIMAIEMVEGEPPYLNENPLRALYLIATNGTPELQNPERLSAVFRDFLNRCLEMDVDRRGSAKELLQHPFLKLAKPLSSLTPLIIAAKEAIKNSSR

[4] = molecular target: Platelet-derived growth factor receptor alpha (Homo sapiens) (UniProt P16234); assay: Inhibition of PDGFRalpha (unknown origin) at 10 uM after 120 mins P33 radiolabeled kinase activity assay
Platelet-derived growth factor receptor alpha (Homo sapiens), sequence (P16234 whole entry, canonical isoform): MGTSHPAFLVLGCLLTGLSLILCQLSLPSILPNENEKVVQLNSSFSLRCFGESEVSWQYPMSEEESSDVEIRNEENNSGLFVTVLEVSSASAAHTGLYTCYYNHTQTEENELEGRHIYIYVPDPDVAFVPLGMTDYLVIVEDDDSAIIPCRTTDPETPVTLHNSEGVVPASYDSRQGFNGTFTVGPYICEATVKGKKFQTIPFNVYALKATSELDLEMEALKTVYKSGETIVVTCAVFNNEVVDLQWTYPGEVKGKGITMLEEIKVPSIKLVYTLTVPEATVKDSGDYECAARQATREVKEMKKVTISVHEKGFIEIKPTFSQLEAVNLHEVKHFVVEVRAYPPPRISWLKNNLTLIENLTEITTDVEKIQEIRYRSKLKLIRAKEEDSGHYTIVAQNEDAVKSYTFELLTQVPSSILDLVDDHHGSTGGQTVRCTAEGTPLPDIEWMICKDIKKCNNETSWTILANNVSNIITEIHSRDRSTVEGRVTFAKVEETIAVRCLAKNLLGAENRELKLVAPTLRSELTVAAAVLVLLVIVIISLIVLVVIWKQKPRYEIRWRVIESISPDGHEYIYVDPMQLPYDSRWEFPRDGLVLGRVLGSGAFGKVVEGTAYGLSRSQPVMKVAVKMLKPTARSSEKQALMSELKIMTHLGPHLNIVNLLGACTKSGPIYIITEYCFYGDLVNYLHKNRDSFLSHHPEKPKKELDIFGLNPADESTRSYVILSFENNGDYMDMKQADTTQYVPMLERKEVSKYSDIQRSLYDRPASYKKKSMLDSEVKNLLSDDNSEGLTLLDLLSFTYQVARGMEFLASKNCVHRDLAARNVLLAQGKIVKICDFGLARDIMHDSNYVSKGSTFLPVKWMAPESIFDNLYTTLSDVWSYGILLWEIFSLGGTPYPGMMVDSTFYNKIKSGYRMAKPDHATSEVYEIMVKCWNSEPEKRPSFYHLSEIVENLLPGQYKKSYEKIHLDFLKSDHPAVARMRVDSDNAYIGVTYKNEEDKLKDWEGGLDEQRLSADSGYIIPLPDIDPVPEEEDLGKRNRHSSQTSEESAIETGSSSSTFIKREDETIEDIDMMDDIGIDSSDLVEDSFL

[5] = molecular target: T1, Phosphorylase b kinase gamma catalytic chain, liver/testis isoform (Homo sapiens) (UniProt P15735); assay: Inhibition of PHKg2 (unknown origin) at 10 uM after 120 mins P33 radiolabeled kinase activity assay
T1 sequence (whole entry): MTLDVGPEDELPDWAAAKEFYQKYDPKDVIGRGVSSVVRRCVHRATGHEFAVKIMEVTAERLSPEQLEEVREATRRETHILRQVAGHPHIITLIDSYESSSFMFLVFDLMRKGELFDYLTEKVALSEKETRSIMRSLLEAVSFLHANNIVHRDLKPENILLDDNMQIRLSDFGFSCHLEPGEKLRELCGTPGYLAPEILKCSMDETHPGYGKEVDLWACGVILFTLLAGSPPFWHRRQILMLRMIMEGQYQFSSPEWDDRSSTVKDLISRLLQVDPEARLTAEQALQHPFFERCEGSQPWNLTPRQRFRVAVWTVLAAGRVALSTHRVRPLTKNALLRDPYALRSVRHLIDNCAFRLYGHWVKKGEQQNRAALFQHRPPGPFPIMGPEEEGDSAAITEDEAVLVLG

Homo sapiens = species on record: Homo sapiens; assay: Inhibition of PKCbeta2 (unknown origin) at 10 uM after 120 mins P33 radiolabeled kinase activity assay
[6] = molecular target: Vascular endothelial growth factor receptor 2 (Homo sapiens) (UniProt P35968); assay: Inhibition of KDR (unknown origin) at 10 uM after 120 mins P33 radiolabeled kinase activity assay
Vascular endothelial growth factor receptor 2 (Homo sapiens), sequence (P35968 whole entry): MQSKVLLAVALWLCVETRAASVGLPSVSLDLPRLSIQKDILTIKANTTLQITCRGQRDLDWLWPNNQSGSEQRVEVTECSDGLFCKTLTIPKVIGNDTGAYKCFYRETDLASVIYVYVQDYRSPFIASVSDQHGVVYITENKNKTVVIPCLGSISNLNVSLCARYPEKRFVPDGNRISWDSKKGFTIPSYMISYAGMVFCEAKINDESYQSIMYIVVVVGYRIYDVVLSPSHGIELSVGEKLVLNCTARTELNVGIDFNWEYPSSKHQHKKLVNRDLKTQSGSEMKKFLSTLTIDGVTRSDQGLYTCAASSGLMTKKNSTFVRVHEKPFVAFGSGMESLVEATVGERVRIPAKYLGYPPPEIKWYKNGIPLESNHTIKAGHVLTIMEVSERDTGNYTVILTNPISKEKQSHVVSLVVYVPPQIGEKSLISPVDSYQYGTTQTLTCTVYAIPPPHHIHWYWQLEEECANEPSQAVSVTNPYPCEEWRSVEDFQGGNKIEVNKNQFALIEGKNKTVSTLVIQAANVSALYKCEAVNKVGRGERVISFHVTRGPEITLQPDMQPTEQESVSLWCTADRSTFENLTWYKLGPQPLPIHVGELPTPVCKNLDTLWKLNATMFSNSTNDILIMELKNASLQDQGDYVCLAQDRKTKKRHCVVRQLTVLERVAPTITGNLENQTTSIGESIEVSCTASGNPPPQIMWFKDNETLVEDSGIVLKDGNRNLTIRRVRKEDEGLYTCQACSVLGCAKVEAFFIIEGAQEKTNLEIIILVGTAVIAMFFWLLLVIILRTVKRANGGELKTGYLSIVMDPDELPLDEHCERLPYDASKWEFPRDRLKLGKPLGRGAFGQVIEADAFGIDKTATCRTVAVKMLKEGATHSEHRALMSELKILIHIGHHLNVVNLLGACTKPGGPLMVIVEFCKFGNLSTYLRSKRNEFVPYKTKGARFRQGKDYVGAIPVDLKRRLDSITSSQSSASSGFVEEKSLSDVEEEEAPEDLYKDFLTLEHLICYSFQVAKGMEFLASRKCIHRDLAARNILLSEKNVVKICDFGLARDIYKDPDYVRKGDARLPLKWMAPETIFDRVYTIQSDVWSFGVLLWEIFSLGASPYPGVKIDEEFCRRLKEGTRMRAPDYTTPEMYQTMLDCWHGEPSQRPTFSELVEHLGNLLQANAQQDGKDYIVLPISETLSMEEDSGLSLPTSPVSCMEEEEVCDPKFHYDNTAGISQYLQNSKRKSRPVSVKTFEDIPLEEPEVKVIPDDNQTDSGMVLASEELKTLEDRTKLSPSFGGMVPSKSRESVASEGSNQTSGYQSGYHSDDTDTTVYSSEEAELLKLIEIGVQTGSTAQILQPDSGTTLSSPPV

[7] = molecular target: T2, Serine/threonine-protein kinase Sgk3 (Homo sapiens) (UniProt Q96BR1); assay: Inhibition of SGK3 (unknown origin) at 10 uM after 120 mins P33 radiolabeled kinase activity assay
T2 sequence (whole entry): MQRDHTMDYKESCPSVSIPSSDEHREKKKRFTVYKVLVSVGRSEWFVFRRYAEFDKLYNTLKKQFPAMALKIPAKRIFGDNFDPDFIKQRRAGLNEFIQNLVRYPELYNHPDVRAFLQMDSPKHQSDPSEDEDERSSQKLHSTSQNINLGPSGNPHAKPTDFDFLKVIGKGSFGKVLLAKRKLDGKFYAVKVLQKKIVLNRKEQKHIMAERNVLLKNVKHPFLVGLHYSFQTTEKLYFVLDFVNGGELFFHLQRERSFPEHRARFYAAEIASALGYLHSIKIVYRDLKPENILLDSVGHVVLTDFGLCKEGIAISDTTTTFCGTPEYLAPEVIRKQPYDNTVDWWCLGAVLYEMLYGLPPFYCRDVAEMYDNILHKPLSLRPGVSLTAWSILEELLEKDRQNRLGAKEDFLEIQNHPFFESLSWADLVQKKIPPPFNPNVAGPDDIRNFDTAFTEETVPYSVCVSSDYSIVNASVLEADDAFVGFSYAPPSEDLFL

[8] = molecular target: T3, Serine/threonine-protein kinase A-Raf (Homo sapiens) (UniProt P10398); assay: Inhibition of ARAF (unknown origin) at 10 uM after 120 mins P33 radiolabeled kinase activity assay
T3 sequence (whole entry): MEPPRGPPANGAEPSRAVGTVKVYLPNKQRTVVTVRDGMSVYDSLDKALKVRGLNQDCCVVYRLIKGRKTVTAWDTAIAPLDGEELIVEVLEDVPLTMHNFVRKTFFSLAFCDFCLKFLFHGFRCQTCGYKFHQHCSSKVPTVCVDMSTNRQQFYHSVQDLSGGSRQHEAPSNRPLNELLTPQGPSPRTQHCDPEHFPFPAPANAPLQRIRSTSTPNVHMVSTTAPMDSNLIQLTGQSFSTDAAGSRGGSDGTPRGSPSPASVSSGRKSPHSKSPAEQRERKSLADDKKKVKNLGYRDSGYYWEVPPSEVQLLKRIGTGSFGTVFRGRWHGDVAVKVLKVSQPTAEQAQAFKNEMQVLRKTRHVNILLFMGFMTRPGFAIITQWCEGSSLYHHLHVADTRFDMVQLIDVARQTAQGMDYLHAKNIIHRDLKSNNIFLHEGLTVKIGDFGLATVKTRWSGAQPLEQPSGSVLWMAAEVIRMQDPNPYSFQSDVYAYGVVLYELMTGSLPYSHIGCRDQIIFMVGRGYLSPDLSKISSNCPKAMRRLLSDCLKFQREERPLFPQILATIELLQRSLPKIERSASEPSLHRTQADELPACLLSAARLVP

[9] = molecular target: T4, Serine/threonine-protein kinase BRSK1 (Homo sapiens) (UniProt Q8TDC3); assay: Inhibition of BRSK1 (unknown origin) at 10 uM after 120 mins P33 radiolabeled kinase activity assay
T4 sequence (whole entry): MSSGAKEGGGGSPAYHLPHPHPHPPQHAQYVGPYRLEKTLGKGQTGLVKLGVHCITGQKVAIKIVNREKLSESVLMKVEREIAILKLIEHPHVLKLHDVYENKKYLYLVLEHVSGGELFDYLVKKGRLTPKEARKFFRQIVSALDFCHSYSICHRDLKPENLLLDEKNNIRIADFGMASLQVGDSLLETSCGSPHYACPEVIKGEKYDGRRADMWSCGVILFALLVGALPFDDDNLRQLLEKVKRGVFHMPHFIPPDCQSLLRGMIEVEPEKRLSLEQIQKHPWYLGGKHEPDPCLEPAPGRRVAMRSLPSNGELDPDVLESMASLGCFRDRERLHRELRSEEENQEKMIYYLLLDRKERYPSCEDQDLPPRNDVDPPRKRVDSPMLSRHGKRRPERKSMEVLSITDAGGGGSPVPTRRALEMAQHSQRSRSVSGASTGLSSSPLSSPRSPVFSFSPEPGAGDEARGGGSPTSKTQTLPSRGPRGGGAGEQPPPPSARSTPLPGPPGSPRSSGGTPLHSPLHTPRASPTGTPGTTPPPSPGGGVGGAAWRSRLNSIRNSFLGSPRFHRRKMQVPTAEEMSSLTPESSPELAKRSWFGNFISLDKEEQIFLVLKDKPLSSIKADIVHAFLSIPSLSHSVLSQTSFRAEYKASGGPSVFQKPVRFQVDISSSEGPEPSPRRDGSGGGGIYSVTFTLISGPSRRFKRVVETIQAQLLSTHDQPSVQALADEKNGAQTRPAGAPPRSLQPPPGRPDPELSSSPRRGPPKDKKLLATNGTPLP

Mitogen-activated protein kinase 14 (Homo sapiens), sequence (Q16539 whole entry): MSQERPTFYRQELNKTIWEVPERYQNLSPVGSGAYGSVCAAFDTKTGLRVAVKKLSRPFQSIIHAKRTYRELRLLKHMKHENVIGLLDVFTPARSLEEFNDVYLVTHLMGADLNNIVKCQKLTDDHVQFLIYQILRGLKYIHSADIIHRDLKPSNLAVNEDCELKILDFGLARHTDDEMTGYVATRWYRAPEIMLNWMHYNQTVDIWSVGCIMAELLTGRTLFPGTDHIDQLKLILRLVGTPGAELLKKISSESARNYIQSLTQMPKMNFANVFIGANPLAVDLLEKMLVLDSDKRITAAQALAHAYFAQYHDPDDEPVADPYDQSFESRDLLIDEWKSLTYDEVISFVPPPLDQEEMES
Glycogen synthase kinase-3 beta (Homo sapiens), sequence (P49841 whole entry, looked up): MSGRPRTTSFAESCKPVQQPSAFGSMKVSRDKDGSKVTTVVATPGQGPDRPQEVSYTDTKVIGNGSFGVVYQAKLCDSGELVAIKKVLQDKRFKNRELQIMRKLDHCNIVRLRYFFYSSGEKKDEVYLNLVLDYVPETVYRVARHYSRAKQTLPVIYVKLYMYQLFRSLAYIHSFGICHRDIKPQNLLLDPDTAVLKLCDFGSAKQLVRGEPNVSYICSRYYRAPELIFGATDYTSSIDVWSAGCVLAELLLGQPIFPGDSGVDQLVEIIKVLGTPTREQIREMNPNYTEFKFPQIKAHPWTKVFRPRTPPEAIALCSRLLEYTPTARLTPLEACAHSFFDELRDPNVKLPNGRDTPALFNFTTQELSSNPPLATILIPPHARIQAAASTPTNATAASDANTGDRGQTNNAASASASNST

Row | inhibition [1] [%] | inhibition [2] [%] | inhibition [3] [%] | inhibition [4] [%] | inhibition [5] [%] | inhibition (Homo sapiens) [%] | inhibition [6] [%] | inhibition [7] [%] | inhibition [8] [%] | inhibition [9] [%] | SMILES
1 | 98.9 | 18.8 | 53.5 | 94.1 | 5.98 | 9.1 | 96.3 | 3.98 | 97.7 | 49.8 | CS(=O)(=O)c1cccc(Nc2nccc(-c3sc(N4CCOCC4)nc3-c3cccc(NS(=O)(=O)c4c(F)cccc4F)c3)n2)c1
2 | 16.9 | 62.3 | 18.5 | 17.2 | 3.38 | 31.5 | 7.13 | 5.07 | 75.8 | 18.7 | COCCNC(=O)c1ccc2c(c1)nc(-c1cnc(-c3ccc(Cl)cc3)[nH]1)n2CCOC
3 | 34.9 | 98.9 | 20.6 | 98.3 | -3.81 | 9.88 | 98.6 | 10 | 96.2 | 16.8 | CC(C)(C)c1cc(NC(=O)Nc2ccc(Oc3ccncc3)cc2)no1
